Read-outs that look alike come from different tables or passages of the source. Where a SMILES comes first, the peptide text is derived from it.
Key:
[1] = tested on: N. gonorrhoeae strain WS1
S. aureus strain 8325-4 [2] = settings: strain 8325-4, 500
S. aureus strain 8325-4 [3] = settings: for % Survival of S. aureus: Table 3, all peptides at 5×10^-4 M

## CSCC[C@H](NC(=O)[C@H](CO)NC(=O)[C@@H](NC(=O)[C@H](CCCNC(=N)N)NC(=O)CNC(=O)[C@H](Cc1c[nH]c2ccccc12)NC(=O)CNC(=O)[C@H](C)NC(=O)[C@@H](NC(=O)[C@@H](NC(=O)[C@@H](N)CS)[C@@H](C)O)C(C)C)C(C)C)C(=O)N[C@@H](CCCNC(=N)N)C(=O)N[C@@H](CCCNC(=N)N)C(=O)NCC(=O)N[C@H](C(=O)O)[C@@H](C)O [CG 122-136] (H-CTVAGWGRVSMRRGT-OH)
P. aeruginosa ATCC 27853; ATCC 27853, 500
  Log Kill (500 μg/ml) P. aeruginosa ATCC 27853: 4.75 log
[1]; strain WS1, 500
  Log Kill (500 μg/ml) N. gonorrhoeae strain WS1: 4.18 log
S. aureus strain 8325-4 [2]
  Log Kill (500 μg/ml) S. aureus strain 8325-4: 0 log

## CSCC[C@H](NC(=O)[C@H](CO)NC(=O)[C@@H](NC(=O)[C@H](CCCNC(=N)N)NC(=O)CNC(=O)[C@@H](N)Cc1c[nH]c2ccccc12)C(C)C)C(=O)N[C@@H](CCCNC(=N)N)C(=O)N[C@@H](CCCNC(=N)N)C(=O)NCC(=O)N[C@H](C(=O)O)[C@@H](C)O [CG 127-136] (H-WGRVSMRRGT-OH)
P. aeruginosa ATCC 27853; ATCC 27853, 500
  Log Kill (500 μg/ml) P. aeruginosa ATCC 27853: 0.27 log
[1]; strain WS1, 500
  Log Kill (500 μg/ml) N. gonorrhoeae strain WS1: 3.20 log
S. aureus strain 8325-4 [2]
  Log Kill (500 μg/ml) S. aureus strain 8325-4: 0 log

## CC[C@H](C)[C@H](NC(=O)[C@H](CCCNC(=N)N)NC(=O)[C@H](CC(C)C)NC(=O)[C@H](CS)NC(=O)[C@H](CCC(N)=O)NC(=O)[C@H](CCCNC(=N)N)NC(=O)[C@H](CC(=O)O)NC(=O)[C@H](CCCNC(=N)N)NC(=O)[C@H](CCC(N)=O)NC(=O)[C@@H](NC(=O)[C@H](CCCNC(=N)N)NC(=O)[C@H](CC(C)C)NC(=O)[C@H](CCC(N)=O)NC(=O)[C@@H](NC(=O)[C@H](CCC(=O)O)NC(=O)[C@H](CCCNC(=N)N)NC(=O)[C@H](CC(C)C)NC(=O)[C@@H](NC(=O)[C@@H](N)CC(=O)O)[C@@H](C)O)C(C)C)C(C)C)C(=O)N[C@@H](Cc1ccccc1)C(=O)O [CG 137-156] (H-DTLREVQLRVQRDRQCLRIF-OH)
P. aeruginosa ATCC 27853; Table 6, crude peptides 500 μg/ml, about 10^7 CFU/ml, 1/100 strength HBSS
  Log Kill (500 μg/ml) P. aeruginosa ATCC 27853: 0.01 log
[1]; Table 6, crude peptides 500 μg/ml, 1/100 strength HBSS
  Log Kill (500 μg/ml) N. gonorrhoeae strain WS1: 0.43 log

## CC[C@H](C)[C@H](NC(=O)[C@H](CCC(N)=O)NC(=O)[C@H](CCCNC(=N)N)NC(=O)[C@H](CCCNC(=N)N)NC(=O)[C@@H]1CCCN1C(=O)[C@H](CC(=O)O)NC(=O)[C@H](Cc1ccc(O)cc1)NC(=O)[C@H](CO)NC(=O)CN)C(=O)N[C@@H](CS)C(=O)N[C@H](C(=O)NCC(=O)N[C@@H](CC(=O)O)C(=O)N[C@@H](CCCNC(=N)N)C(=O)N[C@@H](CCCNC(=N)N)C(=O)N[C@@H](CCC(=O)O)C(=O)N[C@@H](CCCNC(=N)N)C(=O)N[C@@H](CCCCN)C(=O)N[C@@H](C)C(=O)N[C@@H](C)C(=O)O)C(C)C [CG 157-176] (H-GSYDPRRQICVGDRRERKAA-OH)
P. aeruginosa ATCC 27853; ATCC 27853, 500
  Log Kill (500 μg/ml) P. aeruginosa ATCC 27853: 1.02 log
[1]; strain WS1, 500
  Log Kill (500 μg/ml) N. gonorrhoeae strain WS1: -0.18 log

## CC[C@H](C)[C@H](NC(=O)CNC(=O)[C@H](Cc1c[nH]cn1)NC(=O)[C@H](C)NC(=O)[C@@H](NC(=O)[C@H](CC(N)=O)NC(=O)[C@H](CC(N)=O)NC(=O)[C@H](CS)NC(=O)[C@H](CC(C)C)NC(=O)[C@H](CC(C)C)NC(=O)[C@@H]1CCCN1C(=O)CNC(=O)CNC(=O)[C@H](CO)NC(=O)[C@H](CC(=O)O)NC(=O)CNC(=O)[C@H](CCCCN)NC(=O)[C@@H](N)Cc1ccccc1)C(C)C)C(=O)N[C@H](C(=O)N[C@@H](CO)C(=O)N[C@@H](Cc1ccc(O)cc1)C(=O)O)C(C)C [CG 177-197] (H-FKGDSGGPLLCNNVAHGIVSY-OH)
P. aeruginosa ATCC 27853; ATCC 27853, 500
  Log Kill (500 μg/ml) P. aeruginosa ATCC 27853: -0.79 log
[1]; strain WS1, 500
  Log Kill (500 μg/ml) N. gonorrhoeae strain WS1: 0.68 log

## CC[C@H](C)[C@H](N)C(=O)N[C@H](C(=O)NCC(=O)NCC(=O)N[C@@H](CCCNC(=N)N)C(=O)O)[C@@H](C)CC [IIGGR] (H-IIGGR-OH)
S. aureus strain 8325-4 [3]
  ED50: 430 µM

## CC[C@H](C)[C@H](N)C(=O)N[C@H](C(=O)NCC(=O)NCC(=O)N[C@@H](CCCNC(=N)N)C(=O)O)C(C)C [IVGGR] (H-IVGGR-OH)
S. aureus strain 8325-4 [3]
  ED50: > 875 µM

## H^1m QYNQR
S. aureus strain 8325-4 [3]
  % Survival of S. aureus: 37.3%

## H^3m PQYNQR
S. aureus strain 8325-4 [3]
  % Survival of S. aureus: 18.3%

From US5798336A, “Antimicrobial peptides” (priority 1995, dated 1998)
